# Measured values from US4898870A, “Pyrroloquinoline quinone compounds useful as an enzyme inhibitor” (Sogo Pharmaceutical Company Limited, priority 1986, dated 1990).
# Experiments:
# Acute toxicity test, rat = settings: in vivo
# Text: (§1) Generally, pyrroloquinoline quinone (hereinafter referred to as PQQ) is a novel coenzyme different from conventional coenzyme NAD(P) or flavins for oxydation-reduction and it was initially found as a coenzyme for glucose dehydrogenase of Acinetobactor group. PQQ has a concern with the oxidizing reaction of alcohols, aldehydes, glucose and amines in an organism. Further, its growth promoting effect to a certain kind of micro-organisms,animal cells, plant cells has also been reported. Further, PQQ is also presented in the blood of mammal and, while its vitamin-like physiological activity is guessed, its biological roles has not yet been known at present. However, PQQ and its derivatives constitute the ingredients of an organism and considered to be a stable and non-toxic substance. This is apparent from the result of the acute toxicity test to mouse and rat described later.
# (§2) Acute toxicity test of PQQ tri(dimethylamide)
# [1] = target: T1, human placental aldose reductase (Homo sapiens, UniProt P15121); assay: Inhibition of human placental aldose reductase; assay type: biochemical; settings: human placenta enzyme
# T1 construct: An enzyme solution was prepared from human placenta; from tissue; host or cells: human placenta
# Method: Specifically reaction was started by adding dl-glyceraldehyde as a substrate to a reaction solution containing rat lens homogenate, Li2 SO4, NADPH2 and inhibitor, and the enzyme activity was measured by the decrease of the optical absorption of NADPH2 (optical density: OD) at 340 nm for 5 min. The solution with no addition of the substrate was used for the blank OD. The inhibiting ratio for the aldose reductase reaction by the inhibitor was determined by the following equation: [formula]
# The determination of enzyme activity was same as in Test Example 1 except enzyme source was human placenta.
# To a reaction solution containing the chick lens homogenate, Li2 SO4, NADPH2 and an inhibitor, was added dlglyceraldehyde as substrate to start the reaction, and the enzymatic activity was determined by measuring the decrease in optical density (OD) of NADPH2 at 340 nm after five minutes. A solution with no substrate added was used for the blank test. The inhibition rate against the aldose reductase reaction was calculated from the following equation: [formula]
# An enzyme solution was prepared from human placenta, and the inhibitory action of PQQ·2K against human placental aldose reductase was measured in the same way as in Test Example 4.
# An enzyme solution was prepared from human placenta, and the inhibitory action of PQQ·3Me against human placental aldose reductase was measured in the same way as in Test Example 4.
# An enzyme solution was prepared from human placenta, and the inhibitory action of PQQ·2Me.Et against human placental aldose reductase was measured in the same way as in Test Example 4.
# [2] = Acute toxicity test, mouse; settings: in vivo
# Text: as §1, §2
compound,measurement,setting,value
CN(C)C(=O)c1cc(C(=O)N(C)C)c2c(n1)C(=O)C(=O)c1cc(C(=O)N(C)C)[nH]c1-2 [PQQ tri(dimethylamide)],LD50,"Acute toxicity test, rat; oral",> 5000 mg/kg
same,LD50,"Acute toxicity test, rat; sc, subcutaneous",> 1500 mg/kg
same,IC50,[1],830 nM
same,LD50,[2]; oral,> 5000 mg/kg
same,LD50,"[2]; sc, subcutaneous",> 1500 mg/kg
